Experimental data as given in ChEMBL document CHEMBL1201862, “PubChem BioAssay data set” (2004).
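Where inhibition never reached the appropriate level, the endpoint shown equals the highest concentration tested. Otherwise, values were interpolated linearly from a five-concentration, 48-hour dose response in 96-well plates. At the GI50, growth is halved.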 Active and inactive are the calls of the source. Cut-off read from the data, not from the text of the source: active = GI50 up to about 1.1 µM and inactive = higher.

Experiments:
Test in all cases: inhibition of tumour cell growth, NCI panel, 48 h
SF-539 = tested on: SF-539
NCI-H23 = tested on: NCI-H23
786-0 = tested on: 786-0
MOLT-4 = tested on: MOLT-4
NCI-H460 = tested on: NCI-H460
K562 = tested on: K562
SW-620 = tested on: SW-620
HOP-92 = tested on: HOP-92
CCRF-CEM = tested on: CCRF-CEM
U-251 = tested on: U-251
UACC-257 = tested on: UACC-257
OVCAR-5 = tested on: OVCAR-5
A498 = tested on: A498
HL-60 = tested on: HL-60
UO-31 = tested on: UO-31
IGROV-1 = tested on: IGROV-1
CAKI-1 = tested on: CAKI-1
HOP-62 = tested on: HOP-62
HCC 2998 = tested on: HCC 2998

Measured: GI50

CN(C)NC(=O)NC12CC3CC(CC(C3)C1)C2
inactive: SF-539 > 100 µM | NCI-H23 > 100 µM | 786-0 > 100 µM | MOLT-4 > 100 µM | NCI-H460 > 100 µM | K562 > 100 µM | SW-620 > 100 µM | HOP-92 > 100 µM | CCRF-CEM > 100 µM | U-251 > 100 µM | UACC-257 > 100 µM | OVCAR-5 > 100 µM | A498 > 100 µM | HL-60 > 100 µM | UO-31 > 100 µM | IGROV-1 > 100 µM | CAKI-1 > 100 µM

Cc1ccc(-n2c3nc(=O)n(C)c(=O)c-3nc3ccccc32)c(C)c1
inactive: SF-539 13.2 µM | NCI-H23 1.9 µM | 786-0 5.83 µM | MOLT-4 13.9 µM | NCI-H460 3.49 µM | K562 16.4 µM | SW-620 5.57 µM | HOP-62 24.3 µM | CCRF-CEM 14.8 µM | U-251 15.8 µM | UACC-257 3.6 µM | OVCAR-5 18.7 µM | A498 > 10 µM | HL-60 6.49 µM | UO-31 24.3 µM | HCC 2998 5.16 µM | IGROV-1 15.1 µM | CAKI-1 27.6 µM

CC1(C2CCC3(C)OC3C2)CO1 (stereo unspecified)
inactive: SF-539 > 100 µM | NCI-H23 > 100 µM | 786-0 > 100 µM | MOLT-4 > 100 µM | NCI-H460 > 100 µM | K562 > 100 µM | SW-620 > 100 µM | HOP-62 > 100 µM | HOP-92 > 100 µM | CCRF-CEM > 100 µM | U-251 > 100 µM | UACC-257 > 100 µM | OVCAR-5 > 100 µM | HL-60 > 100 µM | UO-31 > 100 µM | HCC 2998 > 100 µM | IGROV-1 > 100 µM | CAKI-1 > 100 µM

COC1=NCc2ccccc2-c2ccccc21
inactive: SF-539 > 100 µM | NCI-H23 > 100 µM | 786-0 > 100 µM | MOLT-4 > 100 µM | NCI-H460 > 100 µM | K562 > 100 µM | CCRF-CEM > 100 µM | U-251 > 100 µM | UACC-257 > 100 µM | HL-60 > 100 µM | UO-31 20.2 µM

O=C(/C=C/c1ccc([N+](=O)[O-])cc1)c1ccc(NCc2nc3ccccc3[nH]2)cc1
inactive: SF-539 2.84 µM | NCI-H23 3.75 µM | 786-0 3.13 µM | MOLT-4 3.51 µM | NCI-H460 2.22 µM | K562 2.3 µM | SW-620 2.25 µM | HOP-62 10 µM | HOP-92 8.57 µM | CCRF-CEM 1.57 µM | U-251 1.75 µM | UACC-257 3.41 µM | OVCAR-5 13.5 µM | A498 7.24 µM | HL-60 1.6 µM | UO-31 4.98 µM | HCC 2998 2.61 µM | IGROV-1 4.48 µM | CAKI-1 6.52 µM

COc1ccc2c(c1)[n+]([O-])c(/C(C)=N/NC(=O)CC#N)c[n+]2[O-]
inactive: SF-539 > 100 µM | NCI-H23 > 100 µM | 786-0 > 100 µM | MOLT-4 > 100 µM | NCI-H460 > 100 µM | K562 > 100 µM | SW-620 11.1 µM | HOP-62 > 100 µM | HOP-92 > 100 µM | CCRF-CEM > 100 µM | U-251 > 100 µM | UACC-257 > 100 µM | OVCAR-5 > 100 µM | A498 > 100 µM | HL-60 21.1 µM | UO-31 > 100 µM | HCC 2998 > 100 µM | IGROV-1 > 100 µM | CAKI-1 35.2 µM

CCOP(=S)(OCC)Oc1ccc2c(c1)OC(=O)C1(Cl)C2(C)C2(Cl)C(=O)Oc3cc(OP(=S)(OCC)OCC)ccc3C12C (stereo unspecified)
inactive: SF-539 11.1 µM | NCI-H23 > 10 µM | 786-0 21.1 µM | MOLT-4 20.9 µM | NCI-H460 17.5 µM | K562 27.3 µM | SW-620 16.7 µM | HOP-62 18.3 µM | CCRF-CEM 16.9 µM | U-251 6.35 µM | UACC-257 17.7 µM | OVCAR-5 19 µM | A498 25.5 µM | HL-60 14.7 µM | UO-31 17.9 µM | HCC 2998 17.7 µM | IGROV-1 17.3 µM | CAKI-1 19.8 µM

COC(=O)c1nn(C(=N)c2ccc(Cl)cc2)c2c1CCCCC2
inactive: SF-539 > 100 µM | NCI-H23 > 100 µM | 786-0 > 100 µM | MOLT-4 > 100 µM | NCI-H460 > 100 µM | K562 > 100 µM | SW-620 > 100 µM | HOP-62 > 100 µM | HOP-92 > 100 µM | CCRF-CEM > 100 µM | U-251 > 100 µM | UACC-257 > 100 µM | OVCAR-5 > 100 µM | A498 > 100 µM | HL-60 > 100 µM | UO-31 > 100 µM | HCC 2998 > 100 µM | IGROV-1 > 100 µM | CAKI-1 > 100 µM

O=C(n1c2ccccc2c2nnc(S)nc21)C(F)(F)F
inactive: SF-539 > 100 µM | NCI-H23 > 100 µM | 786-0 > 100 µM | MOLT-4 > 100 µM | NCI-H460 > 100 µM | K562 > 100 µM | SW-620 > 100 µM | HOP-62 > 100 µM | HOP-92 > 100 µM | CCRF-CEM > 100 µM | U-251 > 100 µM | OVCAR-5 > 100 µM | UO-31 > 100 µM | HCC 2998 > 100 µM | IGROV-1 > 100 µM | CAKI-1 > 100 µM

Cc1cc2c(cn1)C(=O)OCC2
inactive: SF-539 > 100 µM | NCI-H23 > 100 µM | 786-0 > 100 µM | MOLT-4 > 100 µM | NCI-H460 > 100 µM | K562 > 100 µM | SW-620 > 100 µM | HOP-62 > 100 µM | CCRF-CEM > 100 µM | U-251 > 100 µM | UACC-257 > 100 µM | OVCAR-5 > 100 µM | A498 > 100 µM | HL-60 > 100 µM | UO-31 > 100 µM | HCC 2998 > 100 µM | IGROV-1 > 100 µM

CC(C)N(C(=O)C12C3C4C5(C(=O)O)C(C1C35I)C42C(=O)O)C(C)C (stereo unspecified)
inactive: SF-539 > 100 µM | NCI-H23 > 100 µM | 786-0 > 100 µM | MOLT-4 > 100 µM | NCI-H460 > 100 µM | K562 > 100 µM | SW-620 > 100 µM | HOP-62 > 100 µM | HOP-92 > 100 µM | CCRF-CEM > 100 µM | U-251 > 100 µM | UACC-257 > 100 µM | OVCAR-5 > 100 µM | A498 > 100 µM | HL-60 > 100 µM | UO-31 > 100 µM | HCC 2998 > 100 µM | IGROV-1 > 100 µM

CO/C(=N\N=C\c1cc(OC)ccc1OC)c1ccncc1
inactive: SF-539 > 10 µM | NCI-H23 > 10 µM | 786-0 > 10 µM | MOLT-4 > 10 µM | NCI-H460 > 10 µM | K562 > 10 µM | SW-620 > 10 µM | HOP-62 > 10 µM | CCRF-CEM > 10 µM | U-251 > 10 µM | OVCAR-5 > 10 µM | A498 > 10 µM | HL-60 > 10 µM | UO-31 > 10 µM | HCC 2998 > 10 µM | IGROV-1 > 10 µM

COc1cccc(/C=N/[N-]C(=S)Nc2ccccc2)c1[O-].O.[Zn+2]
inactive: SF-539 66.4 µM | NCI-H23 37.7 µM | 786-0 > 100 µM | MOLT-4 28.6 µM | NCI-H460 50.9 µM | K562 42 µM | SW-620 56.4 µM | HOP-62 17 µM | HOP-92 73.5 µM | CCRF-CEM 29.3 µM | U-251 60.4 µM | UACC-257 55.5 µM | OVCAR-5 > 100 µM | HL-60 28.8 µM | UO-31 33.6 µM | HCC 2998 > 100 µM | IGROV-1 52 µM | CAKI-1 87.7 µM

COc1ccc2nc3n(c2c1)C(c1c(Cl)cccc1Cl)SC3 (stereo unspecified)
inactive: NCI-H23 > 100 µM | 786-0 > 100 µM | MOLT-4 > 100 µM | NCI-H460 > 100 µM | K562 > 100 µM | SW-620 > 100 µM | HOP-62 59.7 µM | HOP-92 > 100 µM | CCRF-CEM > 100 µM | U-251 > 100 µM | UACC-257 > 100 µM | OVCAR-5 > 100 µM | A498 > 100 µM | HL-60 > 100 µM | UO-31 > 100 µM | HCC 2998 > 100 µM | IGROV-1 > 100 µM | CAKI-1 > 100 µM

C=CCn1c(=O)n(CC=C)c(=O)n(CC=C)c1=O
inactive: SF-539 > 100 µM | NCI-H23 > 100 µM | 786-0 > 100 µM | MOLT-4 > 100 µM | NCI-H460 > 100 µM | K562 > 100 µM | SW-620 > 100 µM | HOP-62 > 100 µM | HOP-92 > 100 µM | CCRF-CEM > 100 µM | U-251 > 100 µM | UACC-257 > 100 µM | OVCAR-5 > 100 µM | A498 > 100 µM | HL-60 > 100 µM | UO-31 > 100 µM | HCC 2998 > 100 µM | IGROV-1 > 100 µM

CN(C)C(=S)/N=c1\ss/c(=N\S(=O)(=O)c2ccccc2)n1N(C)C
inactive: SF-539 > 100 µM | 786-0 45 µM | MOLT-4 > 100 µM | NCI-H460 > 100 µM | K562 59.8 µM | SW-620 > 100 µM | HOP-62 > 100 µM | CCRF-CEM 37.9 µM | U-251 > 100 µM | UACC-257 > 100 µM | A498 > 100 µM | HL-60 > 100 µM | UO-31 > 100 µM | HCC 2998 > 100 µM | IGROV-1 > 100 µM | CAKI-1 > 100 µM
